Experimental data reported in paper PMC11603075 (Communications Biology, 2024).

How the values were obtained:
KDM4E [1] = molecular target: T1, KDM4E (Homo sapiens, UniProt B2RXH2); test: Inhibition of KDM4E arginine hydroxylation (ROH), LC–MS; format: biochemical; settings: for inhibition of +16 Da product formation: KDM4E with H2a(1–20)
T1 construct: KDM4E1–337; made in house; host or cells: E. coli
T1 sequence (B2RXH2 1-337): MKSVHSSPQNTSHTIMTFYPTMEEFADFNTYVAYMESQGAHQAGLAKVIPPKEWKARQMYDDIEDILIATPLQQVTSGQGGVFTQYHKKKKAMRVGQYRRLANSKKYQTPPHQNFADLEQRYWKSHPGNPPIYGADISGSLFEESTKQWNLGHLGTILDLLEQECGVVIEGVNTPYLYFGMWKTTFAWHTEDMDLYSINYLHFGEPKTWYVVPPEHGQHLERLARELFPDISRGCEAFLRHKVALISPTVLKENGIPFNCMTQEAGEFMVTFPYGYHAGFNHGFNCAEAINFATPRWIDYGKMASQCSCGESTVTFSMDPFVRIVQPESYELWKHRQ
Procedure: µM (NH4)2Fe(SO4)2, and 50 mM HEPES (pH 7.5). (c,d) Inhibition of arginine hydroxylation (ROH) activity of KDM4E by small molecule 2OG oxygenase inhibitors. ( c ) ROH activity measurements were performed using an LC–MS based assay (Error bars; +/- SD; n = 3 independent assays). Conditions: 10 µM H2a(1 -20) incubated with 1 µM KDM4E, 100 µM sodium L-ascorbate, 10 µM (NH4)2Fe(SO4)2 and 100 µM 2OG.
Reactions wer e quenched after 90 min. […]

KDM4E [2] = molecular target: T1, KDM4E; test: FDH-coupled demethylation assay, Michaelis–Menten kinetics; format: biochemical
Procedure: The RDM activity of KDM4E with H2a(1–20)R3me2a was compared with demethylation of H3(1–21)R2me2a using a formaldehyde dehydrogenase (FDH) assay[23],[24]. KDM4E catalysed demethylation of H2a R3me2a was less efficient than H3 R2me2a by approximately three-fold under the same conditions (kcat/KM 0.89 hr^−1 µM^−1 for H2a(1–20)R3me2a and 2.58 hr^−1 µM^−1 for H3(1–21)R2me2a).
When LC–MS-based assays were used, time course assays were carried out as described; product formation (%) was plotted against time (s) using GraphPad Prism5 version 5.04. The gradient of each reaction was calculated by fitting a line of linear regression to the first-order region. The resultant slope was used to calculate reaction rate in µM hr^−1. The rate versus peptide concentration (µM) was plotted and the KM, kcat, and Vmax values determined by fitting the Michaelis–Menten equation using GraphPad Prism5 version 5.04. […]
Supplementary Figure 3 KDM4E catalysed H2a(1–20) hydroxylation and H3(1–21)R2me2a demethylation. Michaelis–Menten plots monitoring: ( a) hydroxylation of H2a(1–20) measured using LC– MS (R2 value obtained was 0.5 indicating poor goodness of fit, likely due to limited data at low substrate concentrations due to signal:noise limitations), (b) demethylation of H2a(1–20)R3me2a, and (c) demethylation of H3(1–21)R2me2a measured using the FDH-coupled demethylation assay. […]

KDM4A = test: MALDI–TOF MS screen of biotin-tagged H2a(1–20)R3X peptides with KDM4A; format: biochemical, human; settings: for RDM activity: initial screen, biotinylated peptides
Source text: (§1) To investigate whether histone H2a is a JmjC-KDM substrate, we initially used mass spectrometry (MS) to screen a set of biotinylated N-terminal H2a(1–20) peptides with post-translational modifications (PTMs) at Arg-3, i.e. asymmetrically/symmetrically di-methylated Arg-3 (H2aR3me2a, H2aR3me2s, respectively), mono-methylated Arg-3 (H2aR3me1) and citrullinated Arg-3 (H2aR3Ci), against KDM4A, KDM4D, KDM4E and KDM5C. […] H2a(1–20)R3me2a, which appeared to be the most efficient RDM substrate in the screen, was then re-synthesised without a biotin tag and tested for RDM activity using the catalytic domains of all KDM4/KDM5 subfamily members.
(§2) MS-based screening assays with peptides and calf thymus histones were as reported; see Supplementary Table 6 for conditions. Time course assays were based on reported procedures. In brief, equal volumes of the enzyme and substrate solutions were combined to initiate the reaction; 10 µL of 2% (v/v) formic acid (HCOOH) in ddH2O or 100% methanol was added to 10 µL of the reaction mixture to quench reactions at different time points. Unless otherwise stated, time course assays were carried out in triplicate. In some cases, LC–MS was used instead of MALDI-TOF MS to avoid a MALDI matrix induced artefact with the hydroxylated product (Supplementary Fig. 16).
(§3) Supplementary Figure 1 Initial Screen of H2a fragments with KD M4 A, KDM4D, KDM4E, and KDM5C.
(§4) KDM4D, KDM4E, and KDM5C with H2a(1–20)R3X peptides from the AltaBioscience peptide library (Set 5) […]
(§5) (potentially), KDM4E, and KDM5C with H2a(1–20)R3me2a; KDM4E and KDM5C with H2a(1–20)R3me2s; and KDM5C wit h H2a(1–20 )R3 me1 . +1 6 Da mass shift s corr esponding t o hydr oxylat ion, were observed wit h […]
(§6) 20), and H2a(1–20)Ci3 (only with KDM4E).
(§7) H 2 a( 1–20)Ci3 and KDM5C with H2a(1–20 ) . […]
(§8) peptides except H2a(1–20)R3me2a. * Low-level peaks indicating ~10% demethylation. Experiments were repeated with the same results. For assay conditions see Supplementary Table 6 (n = 2, independent assays). Peptides were synthesised linked with C-terminal Nε-(D-biotin)-L- ly si ne -amide group (see
(§9) Supplementary Table 5 ) . […]
(§10) (1 picture or pasted object on this page, not shown here)
(§11) [ E nz ym e] [Peptide] [2OG] [Ascorbate] [(NH4)2F e(S O4)2] [TCEP] Buffer pH7.5 Enzyme Cognate substrate (mM) (mM) (mM) (mM) (mM) (mM) [HE PE S]
(§12) Supplementary Table 6 Summary of MS assay conditions for substrate screening. These conditions enabled efficient turnover of established substrates. Reactions were carried out at 37 °C unless otherwise st ated. […]

KDM4E [3] = molecular target: T1, KDM4E; test: MALDI–TOF MS screen of biotin-tagged H2a(1–20)R3X peptides with KDM4E; format: biochemical; settings: for +16 Da mass shift (hydroxylation) / −14 Da mass shift (demethylation): 60 min, KDM4E, MALDI–TOF MS, n = 2; for RDM activity: initial screen, biotinylated peptides
Source text: as §1, §2, §3, §4, §5, §6, §7, §8, §9, §10, §11, §12

KDM4D = test: MALDI–TOF MS screen of biotin-tagged H2a(1–20)R3X peptides with KDM4D; format: biochemical, human; settings: 60 min, n = 2
Source text: as §1, §2, §3, §4, §5, §6, §7, §8, §9, §10, §11, §12

KDM5C = molecular target: T2, KDM5C (Homo sapiens, UniProt P41229); test: MALDI–TOF MS screen of biotin-tagged H2a(1–20)R3X peptides with KDM5C; format: biochemical; settings: for mass shift / −14 Da mass shift (demethylation): 60 min, KDM5C, MALDI–TOF MS, n = 2; for RDM activity: initial screen, biotinylated peptides
T2 construct: KDM5C 1– 765; made in house; host or cells: Sf9 cells
T2 sequence (P41229 1-765): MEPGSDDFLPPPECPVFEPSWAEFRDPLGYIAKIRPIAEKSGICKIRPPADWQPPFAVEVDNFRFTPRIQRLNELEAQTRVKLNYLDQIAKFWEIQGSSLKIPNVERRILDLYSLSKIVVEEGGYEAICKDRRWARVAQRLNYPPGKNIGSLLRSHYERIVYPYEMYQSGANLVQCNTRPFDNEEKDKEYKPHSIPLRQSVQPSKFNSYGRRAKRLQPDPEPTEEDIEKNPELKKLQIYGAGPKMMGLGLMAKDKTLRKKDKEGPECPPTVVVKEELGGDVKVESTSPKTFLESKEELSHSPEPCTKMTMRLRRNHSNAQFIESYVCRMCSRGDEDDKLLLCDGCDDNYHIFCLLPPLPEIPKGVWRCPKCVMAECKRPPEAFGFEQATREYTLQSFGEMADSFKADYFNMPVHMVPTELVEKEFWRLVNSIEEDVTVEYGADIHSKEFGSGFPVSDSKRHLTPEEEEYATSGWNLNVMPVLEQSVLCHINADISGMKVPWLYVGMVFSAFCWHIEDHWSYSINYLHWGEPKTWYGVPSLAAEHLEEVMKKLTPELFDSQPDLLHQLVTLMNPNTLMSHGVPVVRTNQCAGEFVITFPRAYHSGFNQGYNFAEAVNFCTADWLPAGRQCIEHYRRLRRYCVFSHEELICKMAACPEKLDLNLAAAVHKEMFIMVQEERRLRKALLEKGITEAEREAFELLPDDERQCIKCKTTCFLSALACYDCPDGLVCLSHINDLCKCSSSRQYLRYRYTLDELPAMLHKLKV
Source text: as §1, §2, §3, §4, §5, §6, §7, §8, §9, §10, §11, §12

[4] = 60 min, 2 µM KDM4A, 10 µM peptide, MALDI–TOF MS, n = 2

Row | Compound | +16 Da mass shift (hydroxylation) (KDM4E [3]) | RDM activity (KDM4E [3]) | −14 Da mass shift (demethylation) (KDM5C) | RDM activity (KDM5C) | inhibition of +16 Da product formation (KDM4E [1]) | mass shift (KDM4A; [4]) | +16 Da mass shift (hydroxylation) (KDM4D) | RDM activity (KDM4A) | also measured
1 | O=C(O)c1ccnc(C(=O)O)c1 [2,4-PDCA, 2,4-pyridine dicarboxylic acid] |  |  |  |  | inhibited |  |  |  | 
2 | Oc1cccc2cccnc12 [IOX1, 8-hydroxyquinoline] |  |  |  |  | inhibited |  |  |  | IC50 (KDM4E [1]): 22.9 µM
3 | O=C(O)CNC(=O)C(=O)O [NOG, N-oxalylglycine] |  |  |  |  | inhibited |  |  |  | 
4 | AR [ me 2a ] T KQ T AR KST GGKAPR KQ L A [H3(1–21)R2me2a, reference compound] |  |  |  |  |  |  |  |  | kcat/KM (demethylation) (KDM4E [2]; FDH assay, 2 µM KDM4E, 200 µM 2OG, pH 7.5, n = 3 assay repeats): 2.58 h⁻¹ µM⁻¹; kcat/KM relative to KDM substrate H3 K9me3 (fold less) (KDM4E [2]; same FDH assay, H3 K9me3 from ref 7): 13 fold
5 | SGR GKQ GGKAR AKAKT R SSR - NH - Ahx - K- B i oti n [H2a(1–20) (AB), biotinylated H2a(1–20)] | observed |  |  |  |  | No mass shifts were observed | potentially |  | mass shift (KDM5C): No mass shifts were observed
6 | SGR[C i]GKQGGKARAKAKTRSSR-NH-Ahx-K-Biotin [H2a(1–20)Ci3 (AB), biotinylated H2a(1–20) with citrullinated Arg-3] | observed |  |  |  |  | No mass shifts were observed |  |  | mass shift (KDM4D): No mass shifts were observed; mass shift (KDM5C): No mass shifts were observed

Further lines, with some results ahead:

Row | +16 Da mass shift (hydroxylation) (KDM4E [3]) | RDM activity (KDM4E [3]) | −14 Da mass shift (demethylation) (KDM5C) | RDM activity (KDM5C) | Compound | inhibition of +16 Da product formation (KDM4E [1]) | mass shift (KDM4A; [4]) | +16 Da mass shift (hydroxylation) (KDM4D) | RDM activity (KDM4A) | also measured
7 | observed | Evidence for RDM activity | observed | Evidence for RDM activity | SGR[me1]GKQGGKARAKAKTRSSR-NH-Ahx-K-Biotin [H2a(1–20)R3me1 (AB), biotinylated H2a(1–20) with mono-methylated Arg-3] |  | No mass shifts were observed | potentially | to a lesser extent | 
8 | observed | Evidence for RDM activity | observed | Evidence for RDM activity | SGR[me2a]GKQGGKARAKAKTRSSR-NH-Ahx-K-Biotin [H2a(1–20)R3me2a (AB), biotinylated H2a(1–20) with asymmetrically di-methylated Arg-3, AltaBioscience library] |  |  | potentially | to a lesser extent | −14 Da mass shift (demethylation) (KDM4A; 60 min, 2 µM KDM4A, 10 µM peptide, 37 °C, MALDI–TOF MS, n = 2): observed; −14 Da mass shift (demethylation) (KDM4E [3]): observed; −14 Da mass shift (demethylation) (KDM4D): potentially
9 | observed | Evidence for RDM activity | observed | Evidence for RDM activity | SGR[me2s ]GKQGGKARAKAKTRSSR-NH-Ahx-K-Biotin [H2a(1–20)R3me2s (AB), biotinylated H2a(1–20) with symmetrically di-methylated Arg-3] |  | No mass shifts were observed | potentially | to a lesser extent | −14 Da mass shift (demethylation) (KDM4E [3]): observed
